Assay results taken from patent US11555012B2 (Nimbus Artemis, Inc., priority 2018, dated 2023).

Tests used:
[1] = biological target: T1, ACL (Homo sapiens (Human), UniProt P53396); test: ACLY-MDH Coupled Assay
Target sequence in this assay (P53396 whole entry, species assumed): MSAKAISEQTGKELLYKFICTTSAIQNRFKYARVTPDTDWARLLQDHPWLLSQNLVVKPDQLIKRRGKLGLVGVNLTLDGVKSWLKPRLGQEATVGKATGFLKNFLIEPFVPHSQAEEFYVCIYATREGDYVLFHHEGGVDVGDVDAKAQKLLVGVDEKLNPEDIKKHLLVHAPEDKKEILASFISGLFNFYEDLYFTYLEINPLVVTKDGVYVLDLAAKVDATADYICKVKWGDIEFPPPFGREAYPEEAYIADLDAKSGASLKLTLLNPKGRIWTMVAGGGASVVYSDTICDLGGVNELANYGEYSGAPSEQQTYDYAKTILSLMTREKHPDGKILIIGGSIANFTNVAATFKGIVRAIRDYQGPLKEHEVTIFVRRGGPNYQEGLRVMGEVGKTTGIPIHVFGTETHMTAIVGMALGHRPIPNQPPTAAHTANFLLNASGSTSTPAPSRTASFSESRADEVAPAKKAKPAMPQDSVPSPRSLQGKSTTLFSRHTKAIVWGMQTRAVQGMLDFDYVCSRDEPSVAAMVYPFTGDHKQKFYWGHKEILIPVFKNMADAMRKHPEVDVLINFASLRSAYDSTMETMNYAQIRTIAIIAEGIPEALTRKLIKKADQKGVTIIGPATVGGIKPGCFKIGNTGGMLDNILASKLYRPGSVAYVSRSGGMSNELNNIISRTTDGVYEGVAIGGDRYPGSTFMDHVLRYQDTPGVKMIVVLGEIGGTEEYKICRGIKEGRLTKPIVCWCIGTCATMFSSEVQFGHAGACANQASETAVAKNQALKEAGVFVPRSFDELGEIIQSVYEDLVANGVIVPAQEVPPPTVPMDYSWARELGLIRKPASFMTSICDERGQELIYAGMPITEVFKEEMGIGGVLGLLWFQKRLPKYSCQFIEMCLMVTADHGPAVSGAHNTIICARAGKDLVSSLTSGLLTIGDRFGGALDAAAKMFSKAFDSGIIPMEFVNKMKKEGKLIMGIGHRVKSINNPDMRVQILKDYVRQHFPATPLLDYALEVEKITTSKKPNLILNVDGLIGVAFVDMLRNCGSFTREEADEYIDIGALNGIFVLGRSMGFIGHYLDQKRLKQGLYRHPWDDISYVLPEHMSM
Method: Compounds of the present invention were evaluated in an ACLY Coupled Assay.
The assay protocol for the Coupled Assay (below) was followed:
b) Add 1 μL cpds to 96 assay plate, Test cpd conc: 100/30/10 μM top dose, 3 folds dilution, 10+0+control (control: buffer without ACL+DMSO) points, 1000 rpm for 1 min, incubation at 25° C. for 60 min

[2] = biological target: T1, ACL; test: ADP-Glo Assay
Target sequence in this assay (P53396 other isoform, or with tags, fused parts or gaps isoform P53396-2): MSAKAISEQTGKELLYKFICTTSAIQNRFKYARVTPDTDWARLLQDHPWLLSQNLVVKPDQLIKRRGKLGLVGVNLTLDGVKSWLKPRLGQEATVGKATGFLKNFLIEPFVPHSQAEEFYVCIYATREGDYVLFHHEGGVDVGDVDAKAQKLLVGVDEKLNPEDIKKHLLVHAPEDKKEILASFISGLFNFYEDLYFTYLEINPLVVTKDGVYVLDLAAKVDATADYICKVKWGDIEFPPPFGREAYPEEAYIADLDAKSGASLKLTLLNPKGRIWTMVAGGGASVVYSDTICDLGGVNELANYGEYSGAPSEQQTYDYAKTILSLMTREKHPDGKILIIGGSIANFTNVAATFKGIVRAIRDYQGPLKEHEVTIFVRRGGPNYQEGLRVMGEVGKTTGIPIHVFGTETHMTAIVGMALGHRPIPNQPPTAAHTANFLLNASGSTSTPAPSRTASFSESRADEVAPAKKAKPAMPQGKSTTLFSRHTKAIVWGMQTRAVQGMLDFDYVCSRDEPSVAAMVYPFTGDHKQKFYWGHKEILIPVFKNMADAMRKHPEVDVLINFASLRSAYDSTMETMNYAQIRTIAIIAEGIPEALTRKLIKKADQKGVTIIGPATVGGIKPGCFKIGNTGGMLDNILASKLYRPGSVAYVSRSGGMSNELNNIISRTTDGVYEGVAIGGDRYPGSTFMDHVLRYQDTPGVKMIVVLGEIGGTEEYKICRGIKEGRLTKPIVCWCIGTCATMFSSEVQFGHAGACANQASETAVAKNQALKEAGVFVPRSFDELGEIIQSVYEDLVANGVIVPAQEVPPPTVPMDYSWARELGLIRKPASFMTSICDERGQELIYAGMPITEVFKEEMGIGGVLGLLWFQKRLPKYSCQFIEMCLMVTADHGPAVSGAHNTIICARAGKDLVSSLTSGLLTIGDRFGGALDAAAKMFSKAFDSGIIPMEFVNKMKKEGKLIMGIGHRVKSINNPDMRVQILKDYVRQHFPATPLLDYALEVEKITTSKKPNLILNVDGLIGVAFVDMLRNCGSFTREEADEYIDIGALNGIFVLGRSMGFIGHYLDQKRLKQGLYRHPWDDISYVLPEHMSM

[3] = read-out: ACL-MDH Coupled Assay (IC50), 8 nM ACL, 60 μM CoA Na2, 85 μM Citrate, 250 μM ATP, 250 μM NADH
[4] = read-out: ACL-ADP-Glo (IC50), 3 nM ACL, 15 μM ATP, 3 μM CoA, 300 μM Citrate

Structure (SMILES)	IC50 [1] [nM]	IC50 [2] [nM]	IC50 [1, 3] [nM]	IC50 [2, 4] [nM]
O=C(c1cc(Cl)c(O)c(S(=O)(=O)Nc2cc(-c3ccccc3)c(F)cc2F)c1)N1CCCCC1 [I-102, 3-chloro-N-(2,4-difluoro-5-phenylphenyl)-2-hydroxy-5-[(piperidin-1-yl)carbonyl]benzene-1-sulfonamide]	500 to 30000	50 to 500		
C[C@]1(O)CCN(C(=O)c2cc(Cl)c(O)c(S(=O)(=O)Nc3cc(-c4ccccc4)c(F)cc3F)c2)C1 [I-149, (S)-3-chloro-N-(4,6-difluoro-[1,1′-biphenyl]-3-yl)-2-hydroxy-5-(3-hydroxy-3-methylpyrrolidine-1-carbonyl)benzenesulfonamide]	50 to 500			< 50
O=C(c1cc(Cl)c(O)c(S(=O)(=O)Nc2cc(-c3cccnc3)c(F)cc2F)c1)N1CCC1 [I-197, 5-(azetidine-1-carbonyl)-3-chloro-N-[2,4-difluoro-5-(pyridin-3-yl)phenyl]-2-hydroxybenzene-1-sulfonamide]	500 to 30000	50 to 500		
COC(=O)c1cc(Cl)c(O)c(S(=O)(=O)Nc2ccc(F)cc2F)c1 [I-74, Methyl 3-chloro-5-(N-(2,4-difluorophenyl)sulfamoyl)-4-hydroxybenzoate]	500 to 30000	50 to 500		
O=C(c1cc(Cl)c(O)c(S(=O)(=O)Nc2cc(-c3ccccc3)c(F)cc2F)c1)N1CC(F)C1 [I-130, 3-chloro-N-(4,6-difluoro-[1,1′-biphenyl]-3-yl)-5-(3-fluoroazetidine-1-carbonyl)-2-hydroxybenzenesulfonamide]			< 50	< 50
O=C(O)c1cc(F)c(-c2ccccc2)cc1NCc1cc(Cl)cc(Cl)c1 [I-317, 5-((3,5-dichlorobenzyl)amino)-2-fluoro-[1,1′-biphenyl]-4-carboxylic Acid]	500 to 30000	500 to 20000		
O=S(=O)(c1cc(Cl)cc(Cl)c1O)N(Cc1ccccc1)Cc1cccc(-c2ccccc2)c1 [I-67, N-([1,1′-biphenyl]-3-ylmethyl)-N-benzyl-3,5-dichloro-2-hydroxybenzenesulfonamide]	500 to 30000	500 to 20000		
CC(C)(C)OC(=O)COc1ccc(-c2ccccc2)cc1NS(=O)(=O)c1cc(C(=O)N2CCC2)cc(Cl)c1O [I-266, tert-butyl 2-((3-((5-(azetidine-1-carbonyl)-3-chloro-2-hydroxyphenyl)sulfonamido)-[1,1′-biphenyl]-4-yl)oxy)acetate]	500 to 30000	500 to 20000		
O=S(=O)(Nc1ccoc1)c1cc(Cl)cc(Cl)c1 [I-368, 3,5-dichloro-N-(furan-3-yl)benzenesulfonamide]	> 30000	50 to 500		
O=C(c1cc(Cl)c(O)c(S(=O)(=O)Nc2cc(-c3ccccc3)c(F)cc2F)c1)N1CCOCC1 [I-99, 3-chloro-N-(4,6-difluoro-[1,1′-biphenyl]-3-yl)-2-hydroxy-5-(morpholine-4-carbonyl)benzenesulfonamide]	500 to 30000	500 to 20000		
O=C(O)c1ccc(-c2ccccc2)cc1NS(=O)(=O)c1cc(Cl)sc1Cl [I-331]	500 to 30000	500 to 20000		
COc1ccc(-c2ccccc2)cc1NS(=O)(=O)c1cccc(-c2nn[nH]n2)c1 [I-19, N-(4-methoxy-[1,1′-biphenyl]-3-yl)-3-(2H-tetrazol-5-yl)benzenesulfonamide]	500 to 30000	500 to 20000		
COc1ccc(-c2ccccc2)cc1NS(=O)(=O)c1cc(-c2nccn2C)cc(Cl)c1O [I-131, 3-chloro-2-hydroxy-N-[4-methoxy-[1,1-biphenyl]-3-yl]-5-(1-methyl-1H-imidazol-2-yl)benzene-1-sulfonamide]	50 to 500	50 to 500		
O=C(O)c1cc(Cl)c(O)c(S(=O)(=O)Nc2cc(-c3cc4ccccc4s3)c(F)cc2OC(F)(F)F)c1 [I-508, 3-(N-(5-(benzo[b]thiophen-2-yl)-4-fluoro-2-(trifluoromethoxy)phenyl)sulfamoyl)-5-chloro-4-hydroxybenzoic Acid]	500 to 30000	50 to 500		
CC(C)(C)C1CCN(S(=O)(=O)Nc2cc(-c3ccccc3)ccc2C(=O)O)CC1 [I-327]	500 to 30000	500 to 20000		
O=C(O)COc1c(Cl)cc(Cl)cc1S(=O)(=O)Nc1cc(-c2ccccc2)ccc1F [I-143]	500 to 30000	500 to 20000		
O=C(O)c1cc(-c2ccccc2)sc1NS(=O)(=O)c1cc(Cl)cc(Cl)c1 [I-242, 2-((3,5-dichlorophenyl)sulfonamido)-5-phenylthiophene-3-carboxylic Acid]	500 to 30000	500 to 20000		
O=C(c1cc(Cl)c(O)c(S(=O)(=O)Nc2cc(C3CC3)c(F)cc2F)c1)N1CCC1 [I-137, 5-(azetidine-1-carbonyl)-3-chloro-N-(5-cyclopropyl-2,4-difluorophenyl)-2-hydroxybenzene-1-sulfonamide]	50 to 500	50 to 500		
Cc1cc(C)cc(S(=O)(=O)Nc2cc(-c3ccccc3)ccc2C(=O)O)c1 [I-232, 3-((3,5-dimethylphenyl)sulfonamido)-[1,1′-biphenyl]-4-carboxylic acid]	500 to 30000	500 to 20000		

Other lines, results leading:

IC50 [1] [nM]	IC50 [2] [nM]	IC50 [1, 3] [nM]	IC50 [2, 4] [nM]	Structure (SMILES)
500 to 30000	500 to 20000			COc1ccc(-c2ccccc2)cc1NS(=O)(=O)c1cc(C(=O)O)cc(Cl)c1O [I-2, 3-chloro-4-hydroxy-5-(N-(4-methoxy-[1,1′-biphenyl]-3-yl)sulfamoyl)benzoic Acid]
500 to 30000	50 to 500			COc1ccc(-c2ccccc2)cc1NS(=O)(=O)c1cc(C(N)=O)cc(Cl)c1O [I-55, 3-chloro-4-hydroxy-5-[(2-methoxy-5-phenylphenyl)sulfamoyl]benzamide]
500 to 30000	500 to 20000			COC(=O)c1cc(Br)cc(S(=O)(=O)Nc2cc(-c3ccccc3)ccc2C(=O)O)c1 [I-295, 3-((3-bromo-5-(methoxycarbonyl)phenyl)sulfonamido)-[1,1′-biphenyl]-4-carboxylic Acid]
		< 50	< 50	COc1ccc(-c2cc3ccccc3s2)cc1NS(=O)(=O)c1cc(C(=O)N2CCC2)cc(Cl)c1O [I-503, 5-(azetidine-1-carbonyl)-N-(5-(benzo[b]thiophen-2-yl)-2-methoxyphenyl)-3-chloro-2-hydroxybenzenesulfonamide]
		< 50	< 50	CO[C@H]1CCN(C(=O)c2cc(Cl)c(O)c(S(=O)(=O)Nc3cc(-c4ccccc4)ccc3F)c2)C1 [I-142, 3-chloro-N-[4-fluoro-[1,1-biphenyl]-3-yl]-2-hydroxy-5-[(3S)-3-methoxypyrrolidine-1-carbonyl]benzene-1-sulfonamide]
500 to 30000	500 to 20000			O=C(O)c1ccc(-c2ccccc2)cc1NS(=O)(=O)c1ccccc1-c1ccno1 [I-336]
		< 50	< 50	CO[C@H]1CCN(C(=O)c2cc(Cl)c(O)c(S(=O)(=O)Nc3cc(-c4ccccc4)c(F)cc3F)c2)C1 [I-103, 3-chloro-N-(2,4-difluoro-5-phenylphenyl)-2-hydroxy-5-[[(3S)-3-methoxypyrrolidin-1-yl]carbonyl]benzene-1-sulfonamide]
		< 50	< 50	CCOC(=O)c1cc(Cl)c(O)c(S(=O)(=O)Nc2cc(-c3cc4ccccc4s3)c(F)cc2F)c1 [I-505, ethyl 3-(N-(5-(benzo[b]thiophen-2-yl)-2,4-difluorophenyl)sulfamoyl)-5-chloro-4-hydroxybenzoate]
500 to 30000	500 to 20000			COc1c(Cl)cc(C(=O)O)cc1S(=O)(=O)Nc1cc(-c2ccccc2)c(F)cc1F [I-62, 3-chloro-5-[(2,4-difluoro-5-phenylphenyl)sulfamoyl]-4-methoxybenzoic Acid]
